Experimental data taken from patent US20110105550A1 (SALIX PHARMACEUTICALS, LTD., priority 2008, published 2011).
Entries after “also recorded” stand apart in the source; their conditions may differ. Blank lines part the entries; values can stand above or below the compound they belong to.

Legend:
Assay type in all cases: physicochemical
[1] = Stressing under various relative humidities (RH), solid form by XRPD; details: for RH stability: solid form after exposure, 58% RH / RH stability: solid form after exposure, 75% RH: duration not printed in Table 1, am = amorphous
Source text: The jar was sealed and stored at either ambient temperature or in an oven at elevated temperature.

[2] = Automated moisture sorption/desorption (moisture balance); details: for Post-moisture sorption/desorption XRPD form: sorption from 5% RH to 95% RH, desorption from 95% RH to 5% RH; for wt loss from 95 to 5% RH: desorption 95 to 5% RH; for Hygroscopicity: moisture balance; for wt gain from 5 to 95% RH: sorption 5 to 95% RH
Method: Moisture sorption/desorption data were collected on a VTI SGA-100 Vapor Sorption Analyzer. Sorption and desorption data were collected over a range of 5% to 95% relative humidity (RH) at 10% RH intervals under a nitrogen purge. Samples were not dried prior to analysis. Equilibrium criteria used for analysis were less than 0.0100% weight change in 5 minutes, with a maximum equilibration time of 3 hours if the weight criterion was not met. Data were not corrected for the initial moisture content of the samples. NaCl and PVP were used as calibration standards.

[3] = Rifaximin drying experiments, solid form by XRPD
[4] = Dynamic vapor sorption/desorption (DVS) of amorphous preparations
Method: Based on the data, relative humidity stressing studies of the two amorphous materials at 40° C./75% RH are recommended.

[5] = Vapor stressing / vapor diffusion of amorphous rifaximin; details: for Form obtained in vapor diffusion experiment: water as antisolvent
Method: (§1) Vapor stressing experiments were done on amorphous material from two preparations: lyophilization from p-dioxane:water 1:1 and crash precipitation from ethyl acetate with heptane. […] The majority of the stressed samples appeared as clear red solutions after 6 days. Those solutions were placed in vials of antisolvent for vapor diffusion. Dry and wet milling experiments were conducted on amorphous materials from the two preparations mentioned above. Amorphous materials were recovered from the dry milling experiments.

[6] = Milling experiments for amorphous materials; details: 10 min. at 30 Hz, scraped sides, 10 min. at 30 Hz (dry milling)
Method: as §1
A solid sample of rifaximin was charged to a milling container with a milling ball. Samples were milled for 5 or 15 minute intervals (2×5 minutes, 2×15 minutes, and 3×15 minutes) at 30 Hz using a Retsch MM200 mixer mill. Solids were scraped from the sides of the vial after each interval.

[7] = first sample of Table 3 (by elimination: lyophilization in p-dioxane:water 1:1)
[8] = second sample of Table 3 (crash precipitation from ethyl acetate with heptane)

Compound: CO[C@H]1/C=C/O[C@@]2(C)Oc3c(C)c(O)c4c(O)c(c5c(nc6cc(C)ccn65)c4c3C2=O)NC(=O)/C(C)=C\C=C\[C@H](C)[C@H](O)[C@@H](C)[C@@H](O)[C@@H](C)[C@H](OC(C)=O)[C@@H]1C [Form α, reference compound]
- Final Form (XRPD) ([1]; P2O5, 4 days): α dry

Compound: CO[C@H]1/C=C/O[C@@]2(C)Oc3c(C)c(O)c4c(O)c(c5c(nc6cc(C)ccn65)c4c3C2=O)NC(=O)/C(C)=C\C=C\[C@H](C)[C@H](O)[C@@H](C)[C@@H](O)[C@@H](C)[C@H](OC(C)=O)[C@@H]1C [Form α-dry]
- Final Form (XRPD) ([1]; 33% RH, 2 days): α
- Final Form (XRPD) ([1]; 33% RH, 7 days): α
- Final Form (XRPD) ([1]; 43% RH, 4 days): α + β
- Final Form (XRPD) ([1]; 43% RH, 11 days): β + (α)
- Final Form (XRPD) ([1]; 58% RH, 2 days): β
- RH stability: solid form after exposure, 58% RH ([1]; 58% RH, listed as α dry): β
- Final Form (XRPD) ([1]; 75% RH, 2 days): β
- RH stability: solid form after exposure, 75% RH ([1]; 75% RH, listed as α dry): β
- Final Form (XRPD) ([1]; 94% RH, 2 days): β
- Post-moisture sorption/desorption XRPD form ([2]; listed as α dry): α dry
- XRPD Form after drying ([3]; vac oven 50° C., 1 day): α dry
- XRPD Form after drying ([3]; vac oven 50° C., 1 day, vac oven 60° C.): α dry
- XRPD Form after drying ([3]; vac oven 60-65° C., 3 days, listed as α dry): α dry
- Solid form after vacuum drying ([3]; vacuum dried (Table 1 column), listed as α dry): α dry

Compound: CO[C@H]1/C=C/O[C@@]2(C)Oc3c(C)c(O)c4c(O)c(c5c(nc6cc(C)ccn65)c4c3C2=O)NC(=O)/C(C)=C\C=C\[C@H](C)[C@H](O)[C@@H](C)[C@@H](O)[C@@H](C)[C@H](OC(C)=O)[C@@H]1C [Form β-1]
- Final Form (XRPD) ([1]; 33% RH, 4 days): β
- Final Form (XRPD) ([1]; 58% RH, 3 days): β + peak @4.87 °2θ
- RH stability: solid form after exposure, 58% RH ([1]; 58% RH, listed as β-1): β + pk
- Final Form (XRPD) ([1]; 75% RH, 3 days): β
- RH stability: solid form after exposure, 75% RH ([1]; 75% RH, listed as β-1): β
- Final Form (XRPD) ([1]; 94% RH, 3 days): β
- RH stability: solid form after exposure, 94% RH ([1]; 94% RH, duration not given): β

Compound: CO[C@H]1/C=C/O[C@@]2(C)Oc3c(C)c(O)c4c(O)c(c5c(nc6cc(C)ccn65)c4c3C2=O)NC(=O)/C(C)=C\C=C\[C@H](C)[C@H](O)[C@@H](C)[C@@H](O)[C@@H](C)[C@H](OC(C)=O)[C@@H]1C [Form β-2]
- Final Form (XRPD) ([1]; under N2 atmosphere, 20% RH, 3 days): α^d and α
- XRPD Form after drying ([3]; vac oven, 40° C., 1 day, listed as β-2): α dry
- Solid form after vacuum drying ([3]; vacuum dried (Table 1 column), listed as β-2): α dry

Compound: CO[C@H]1/C=C/O[C@@]2(C)Oc3c(C)c(O)c4c(O)c(c5c(nc6cc(C)ccn65)c4c3C2=O)NC(=O)/C(C)=C\C=C\[C@H](C)[C@H](O)[C@@H](C)[C@@H](O)[C@@H](C)[C@H](OC(C)=O)[C@@H]1C [Form γ, reference compound]
- wt loss from 95 to 5% RH [2]: 11.7%
- wt loss upon equilibration at 5% RH [2]: 2.4%
- Hygroscopicity [2]: hygroscopic
- wt gain from 5 to 95% RH [2]: 10.8%
- XRPD Form after drying ([3]; vac oven, ambient, 1 day): remained unchanged

Compound: CO[C@H]1/C=C/O[C@@]2(C)Oc3c(C)c(O)c4c(O)c(c5c(nc6cc(C)ccn65)c4c3C2=O)NC(=O)/C(C)=C\C=C\[C@H](C)[C@H](O)[C@@H](C)[C@@H](O)[C@@H](C)[C@H](OC(C)=O)[C@@H]1C [Form δ, reference compound]
- Final Form (XRPD) ([1]; P2O5, 3 days): ε dry

Compound: CO[C@H]1/C=C/O[C@@]2(C)Oc3c(C)c(O)c4c(O)c(c5c(nc6cc(C)ccn65)c4c3C2=O)NC(=O)/C(C)=C\C=C\[C@H](C)[C@H](O)[C@@H](C)[C@@H](O)[C@@H](C)[C@H](OC(C)=O)[C@@H]1C [Form ε, reference compound]
- XRPD Form after drying ([3]; vac oven 60-65° C., 3 days, listed as ε): ε dry

Further lines, with some results ahead:

- Final Form (XRPD) ([1]; 43% RH, 3 days): Form γ
- Final Form (XRPD) ([1]; 43% RH, 3 days, listed as ζ): γ
- Final Form (XRPD) ([1]; 58% RH, 3 days): Form γ-1 (ζ)
- Final Form (XRPD) ([1]; 75% RH, 3 days): Form γ-1 (ζ)
- Final Form (XRPD) ([1]; stability chamber, 75% RH at 40° C., 1 day): ζ + γ^e
- XRPD Form after drying ([3]; air dry): γ
- XRPD Form after drying ([3]; open vial in hood): γ
- XRPD Form after storage ([3]; stored in refrigerator 3 weeks): ζ
- XRPD Form after drying ([3]; vac dry): γ + η
- XRPD Form after drying ([3]; vac oven, 40° C., 1 day): remained unchanged
- XRPD Form after drying ([3]; vac oven, 45° C., 2 days): η
- XRPD Form after drying ([3]; vac oven, ambient, 1 day): Form η
- XRPD Form after drying ([3]; vac oven, ambient, 1 day, listed as ζ): η
- Solid form after vacuum drying ([3]; vacuum dried (Table 1)): η or and γ + η
Compound: CO[C@H]1/C=C/O[C@@]2(C)Oc3c(C)c(O)c4c(O)c(c5c(nc6cc(C)ccn65)c4c3C2=O)NC(=O)/C(C)=C\C=C\[C@H](C)[C@H](O)[C@@H](C)[C@@H](O)[C@@H](C)[C@H](OC(C)=O)[C@@H]1C [Form ζ]
- Final Form (XRPD) ([1]; 94% RH, 3 days): Form β+γ-1 (ζ); also recorded: Form β30 γ-1 (ζ)

- XRPD Form after drying ([3]; vac oven, 40° C., 1 day): remained unchanged
- XRPD Form after drying ([3]; vac oven, 40° C., 1 day, listed as η): η
- Solid form after vacuum drying ([3]; vacuum dried (Table 1 column), listed as η): η
Compound: CO[C@H]1/C=C/O[C@@]2(C)Oc3c(C)c(O)c4c(O)c(c5c(nc6cc(C)ccn65)c4c3C2=O)NC(=O)/C(C)=C\C=C\[C@H](C)[C@H](O)[C@@H](C)[C@@H](O)[C@@H](C)[C@H](OC(C)=O)[C@@H]1C [Form η]

- Final Form (XRPD) ([1]; 43% RH, 5 days): amorphous
- Final Form (XRPD) ([1]; 43% RH, 5 days, listed as Amorphous): amorphous
- Final Form (XRPD) ([1]; 43% RH, 5 days, listed as amorphous rifaximin): remained amorphous
- Final Form (XRPD) ([1]; 58% RH, 5 days): amorphous
- Final Form (XRPD) ([1]; 58% RH, 8 days): remained amorphous
- RH stability: solid form after exposure, 58% RH ([1]; 58% RH): am
- Final Form (XRPD) ([1]; 75% RH, 2 days, listed as amorphous rifaximin): remained amorphous
- Final Form (XRPD) ([1]; 75% RH, 5 days): amorphous
- RH stability: solid form after exposure, 75% RH ([1]; 75% RH): am
- wt loss from 95 to 5% RH ([2]; listed as Rifaximin Amorphous): 11.3% wt loss from 95 to 5% RH
- wt loss upon equilibration at 5% RH ([2]; listed as Rifaximin Amorphous): 0.7% wt loss upon equilibration at 5% RH
- Hygroscopicity [2]: hygroscopic
- wt gain from 5 to 95% RH ([2]; listed as Amorphous rifaximin): 11.6%
- wt gain from 5 to 95% RH ([2]; listed as Rifaximin Amorphous): 11.6% wt gain from 5 to 95% RH
- Post-moisture sorption/desorption XRPD form ([2]; listed as Amorphous): amorphous
- Post-moisture sorption/desorption XRPD form ([2]; listed as Amorphous rifaximin): amorphous
- Post-moisture sorption/desorption XRPD form ([2]; listed as Rifaximin Amorphous): amorphous
- DVS weight gain from 5-95% RH [4, 7]: 8.364% eight gain from 5-95% RH
- DVS weight loss at 5% RH [4, 7]: 0.100% weight loss at 5% RH
- DVS weight loss from 95-5% RH [4, 7]: 10.989% weight loss from 95-5% RH
- DVS weight loss at 5% RH ([4]; second sample of Table 3 (DSC endo 79/204: crash precipitation from ethyl acetate with heptane)): 1.606% weight loss at 5% RH
- DVS weight gain from 5-95% RH [4, 8]: 7.843% weight gain from 5-95% RH
- DVS weight loss from 95-5% RH [4, 8]: 9.172% weight loss from 95-5% RH
- XRPD Result after stressing ([5]; DCM, VD w/ IPE, 11 days): amorphous
- XRPD Result after stressing ([5]; MEK, VD w/ IPE, 11 days): amorphous
- Form obtained in vapor diffusion experiment ([5]; methanol): Form β
- Form obtained in vapor diffusion experiment ([5]; tetrahydrofuran): Form β
- XRPD Result after stressing ([5]; toluene, VS, RT, 6 days, listed as Rifaximin, Amorphous): amorphous
- XRPD Result after stressing ([5]; toluene, VS, RT, 6 days, listed as amorphous material): no peaks by XRPD
- XRPD Result after stressing ([5]; water, VS, RT, 15 days): amorphous
Compound: CO[C@H]1/C=C/O[C@@]2(C)Oc3c(C)c(O)c4c(O)c(c5c(nc6cc(C)ccn65)c4c3C2=O)NC(=O)/C(C)=C\C=C\[C@H](C)[C@H](O)[C@@H](C)[C@@H](O)[C@@H](C)[C@H](OC(C)=O)[C@@H]1C [amorphous]

- XRPD Result after milling [6]: amorphous
Compound: CO[C@H]1/C=C/O[C@@]2(C)Oc3c(C)c(O)c4c(O)c(c5c(nc6cc(C)ccn65)c4c3C2=O)NC(=O)/C(C)=C\C=C\[C@H](C)[C@H](O)[C@@H](C)[C@@H](O)[C@@H](C)[C@H](OC(C)=O)[C@@H]1C [crash amorphous rifaximin]

- Hygroscopicity (DVS) ([4]; 5 to 95% relative humidity): moderately hygroscopic
- DVS uptake of water (weight gain) ([4]; from 5 to 95% relative humidity): approximately 8%
- Crystallization of post-DVS sample ([4]; post-DVS): Crystallization was not observed
Compound: CO[C@H]1/C=C/O[C@@]2(C)Oc3c(C)c(O)c4c(O)c(c5c(nc6cc(C)ccn65)c4c3C2=O)NC(=O)/C(C)=C\C=C\[C@H](C)[C@H](O)[C@@H](C)[C@@H](O)[C@@H](C)[C@H](OC(C)=O)[C@@H]1C [lyophilized amorphous rifaximin]
